Measurements from patent US20250215029A1 (Recludix Pharma, Inc., priority 2022, published 2025).
Where two headings read alike, the source gives them in different places.

Legend:
[1] = molecular target: T1, Recombinant STAT3 protein (STAT3 (G127-I722)) (Homo sapiens, UniProt P40763); test: STAT3 Fluorescence Polarization (FP) Assay; format: binding; details: probe 5-FAM-GpYLPQTV-NH2 2 nM, 45-minute incubation
T1 construct: Recombinant STAT3 protein (STAT3 (G127-I722))
Outline: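 Displacement of a fluorescent phosphotyrosine peptide (5-FAM-GpYLPQTV-NH2, 2 nM) from 25 nM recombinant STAT3 G127-I722 was monitored by FP after 45 min at room temperature.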

[2] = molecular target: T2, Recombinant STAT6 protein (STAT6 (W123-T658)) (Homo sapiens, UniProt P42226); test: STAT6 Fluorescence Polarization (FP) Assay; format: binding; details: probe 5-FAM-Ap[…]-NH2 2 nM, 45-minute incubation
T2 construct: Recombinant STAT6 protein (STAT6 (W123-T658))
T2 sequence (P42226 123-658): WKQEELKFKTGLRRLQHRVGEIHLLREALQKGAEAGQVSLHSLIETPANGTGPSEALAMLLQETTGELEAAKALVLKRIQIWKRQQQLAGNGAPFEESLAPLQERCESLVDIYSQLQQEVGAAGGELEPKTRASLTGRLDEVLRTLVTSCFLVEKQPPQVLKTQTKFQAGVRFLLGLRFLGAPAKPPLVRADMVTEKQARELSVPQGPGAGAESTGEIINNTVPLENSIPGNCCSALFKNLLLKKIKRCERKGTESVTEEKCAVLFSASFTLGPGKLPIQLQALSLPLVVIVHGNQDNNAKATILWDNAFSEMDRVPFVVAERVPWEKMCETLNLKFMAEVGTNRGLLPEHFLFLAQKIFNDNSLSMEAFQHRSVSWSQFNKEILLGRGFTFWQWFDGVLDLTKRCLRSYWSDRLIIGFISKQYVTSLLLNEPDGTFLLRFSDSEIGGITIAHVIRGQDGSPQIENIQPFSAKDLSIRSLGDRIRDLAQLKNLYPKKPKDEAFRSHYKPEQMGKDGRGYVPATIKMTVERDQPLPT
Outline: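 Probe displacement format: serially diluted compounds incubated 45 min at room temperature with 2 nM fluorescent phosphopeptide and 250 nM STAT6 (W123-T658) in pH 7.4 HEPES buffer, 1% DMSO final. Polarization signal plotted against log concentration, IC50 fitted by nonlinear regression.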

[3] = STAT3 25 nM, read-out: STAT3 (FP assay IC50)
[4] = STAT6 250 nM, read-out: STAT6 (FP assay IC50)
[5] = STAT3 (G127-I722) 25 nM, read-out: STAT3 (FP assay IC50 class)
[6] = STAT6 (W123-T658) 250 nM, read-out: STAT6 (FP assay IC50 class)

T1 sequence (P40763 127-722): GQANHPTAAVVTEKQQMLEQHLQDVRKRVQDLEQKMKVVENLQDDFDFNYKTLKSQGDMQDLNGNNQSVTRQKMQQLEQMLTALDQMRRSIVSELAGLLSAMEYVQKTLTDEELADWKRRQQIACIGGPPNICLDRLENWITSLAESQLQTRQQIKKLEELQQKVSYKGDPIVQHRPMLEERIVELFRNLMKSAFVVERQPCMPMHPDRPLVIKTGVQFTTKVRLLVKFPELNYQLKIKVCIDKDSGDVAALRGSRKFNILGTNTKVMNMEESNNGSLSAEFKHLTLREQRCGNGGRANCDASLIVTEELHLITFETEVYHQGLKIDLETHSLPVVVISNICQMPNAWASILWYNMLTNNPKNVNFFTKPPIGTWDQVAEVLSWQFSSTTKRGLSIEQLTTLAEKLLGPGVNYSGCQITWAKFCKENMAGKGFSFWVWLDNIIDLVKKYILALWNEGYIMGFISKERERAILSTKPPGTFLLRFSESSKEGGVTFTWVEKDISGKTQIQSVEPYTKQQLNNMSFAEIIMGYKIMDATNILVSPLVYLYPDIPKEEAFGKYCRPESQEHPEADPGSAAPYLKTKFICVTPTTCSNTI

Row | Compound | IC50 [1, 3] | IC50 [2, 4] | IC50 [1, 5] | IC50 [2, 6]
1 | CC(=O)N1C[C@H](NC(=O)[C@@H]2CC[C@@H]3CCC[C@H](NC(=O)c4cc5cc(C(F)(F)P(=O)(O)O)ccc5s4)C(=O)N32)[C@@H](O)C1 [Compound 120, ((2-(((3S,6S,9aS)-3-(((3S,4S)-1-acetyl-4-hydroxypyrrolidin-3-yl)carbamoyl)-5-oxooctahydro-1H-pyrrolo[1,2-a]azepin-6-yl)carbamoyl)benzo[b]thiophen-5-yl)difluoromethyl) phosphonic acid] | 0.1 to 1 µM | 0.3 to 3 µM |  | 
2 | O=C(N[C@H]1CCC[C@H]2CC[C@@H](C(=O)Nc3ccc(-c4ccccc4)cc3)N2C1=O)c1cc2cc(C(F)(F)P(=O)(O)O)ccc2s1 [Compound 121, ((2-(((3S,6S,9aS)-3-([1,1′-biphenyl]-4-ylcarbamoyl)-5-oxooctahydro-1H-pyrrolo[1,2-a]azepin-6-yl)carbamoyl)benzo[b]thiophen-5-yl)difluoromethyl) phosphonic acid] | 0.1 to 1 µM | 0.3 to 3 µM |  | 
3 | CCCC(=O)NC1(c2ccccn2)CN(C(=O)[C@@H]2CC[C@@H]3CCCC[C@H](NC(=O)c4cc5cc(C(F)(F)P(=O)(O)O)ccc5s4)C(=O)N32)C1 [Compound 122, ((2-(((3S,6S,10aS)-3-(3-butyramido-3-(pyridin-2-yl)azetidine-1-carbonyl)-5-oxodecahydropyrrolo[1,2-a]azocin-6-yl)carbamoyl)benzo[b]thiophen-5-yl)difluoromethyl)phosphonic acid] | < 0.1 µM | 3 to 30 µM |  | 
4 | O=C(N[C@H]1CCCC[C@H]2CC[C@@H](C(=O)N3CC(NC(=O)C4CC4)(c4ccccn4)C3)N2C1=O)c1cc2cc(C(F)(F)P(=O)(O)O)ccc2s1 [Compound 123, ((2-(((3S,6S, 10aS)-3-(3-(cyclopropane-carboxamido)-3-(pyridin-2-yl)azetidine-1-carbonyl)-5-oxodeca-hydropyrrolo [1,2-a]azocin-6-yl)carbamoyl)benzo[b]thiophen-5-yl)difluoromethyl) phosphonic acid] | < 0.1 µM | 3 to 30 µM |  | 
5 | O=C(CCC(F)(F)F)NC1(c2ccccn2)CN(C(=O)[C@@H]2CC[C@@H]3CCCC[C@H](NC(=O)c4cc5cc(C(F)(F)P(=O)(O)O)ccc5s4)C(=O)N32)C1 [Compound 124, (difluoro(2-(((3S,6S, 10aS)-5-oxo-3-(3-(pyridin-2-yl)-3-(4,4,4-trifluoro-butanamido)azetidine-1-carbonyl)decahydro-pyrrolo [1,2-a]azocin-6-yl)carbamoyl)benzo[b]thiophen-5-yl)methyl) phosphonic acid] | < 0.1 µM | 3 to 30 µM |  | 
6 | O=C(N[C@H]1CCC[C@H]2CC[C@@H](C(=O)N3CCn4cncc4C3)N2C1=O)c1cc2cc(C(F)(F)P(=O)(O)O)ccc2s1 [Compound 203, (difluoro(2-(((3S,6S,9aS)-5-oxo-3-(5,6,7,8-tetrahydroimidazo[1,5-a]pyrazine-7-carbonyl)octahydro-1H-pyrrolo[1,2-a]azepin-6-yl)carbamoyl)benzo[b]thiophen-5-yl)methyl)phosphonic acid] |  |  | 0.1 to 1 µM | 0.3 to 3 µM
7 | O=C(N[C@H]1CCC[C@H]2CC[C@@H](C(=O)N3CC(c4cccnc4)C3)N2C1=O)c1cc2nc(CP(=O)(O)O)ccc2s1 [Compound 208, ((2-(((3S,6S,9aS)-5-oxo-3-(3-(pyridin-3-yl)azetidine-1-carbonyl)octahydro-1H-pyrrolo[1,2-a]azepin-6-yl)carbamoyl)thieno[3,2-b]pyridin-5-yl)methyl)phosphonic acid] |  |  | 1 to 10 µM | 3 to 30 µM
8 | COC[C@@H]1CCN1c1ccncc1C1CN(C(=O)[C@@H]2CC[C@@H]3CCC[C@H](NC(=O)c4cc5cc(CP(=O)(O)O)ccc5s4)C(=O)N32)C1 [Compound 213, ((2-(((3S,6S,9aS)-3-(3-(4-((S)-2-(methoxymethyl)azetidin-1-yl)pyridin-3-yl)azetidine-1-carbonyl)-5-oxooctahydro-1H-pyrrolo[1,2-a]azepin-6-yl)carbamoyl)benzo[b]thiophen-5-yl)methyl)phosphonic acid] |  |  | < 0.1 µM | 3 to 30 µM
9 | COC1(c2nccn2C)CN(C(=O)[C@@H]2CC[C@@H]3CCC4(CC4)C[C@H](NC(=O)c4ccc5ccc(C(F)(F)P(=O)(O)O)cc5c4)C(=O)N32)C1 [Compound 215, (difluoro(7-(((3′S,6′S,10a′S)-3′-(3-methoxy-3-(1-methyl-1H-imidazol-2-yl)azetidine-1-carbonyl)-5′-oxooctahydro-5′H-spiro[cyclopropane-1,8′-pyrrolo[1,2-a]azocin]-6′-yl)carbamoyl)naphthalen-2-yl)methyl)phosphonic acid] |  |  | 1 to 10 µM | 3 to 30 µM
10 | O=C(N[C@H]1CC2(CC[C@H]3CC[C@@H](C(=O)N4CC(c5cccnc5)C4)N3C1=O)CC2)c1cc2cc(CP(=O)(O)O)ccc2s1 [Compound 216, ((2-(((3′S,6′S,10a′S)-5′-oxo-3′-(3-(pyridin-3-yl)azetidine-1-carbonyl)octahydro-5′H-spiro[cyclopropane-1,8′-pyrrolo[1,2-a]azocin]-6′-yl)carbamoyl)benzo[b]thiophen-5-yl)methyl)phosphonic acid] |  |  | 0.1 to 1 µM | 3 to 30 µM

More lines, now with the values ahead:

Row | IC50 [1, 3] | IC50 [2, 4] | IC50 [1, 5] | IC50 [2, 6] | Compound
11 |  |  | < 0.1 µM | 3 to 30 µM | CCc1ccncc1C1CN(C(=O)[C@@H]2CC[C@@H]3CCC[C@H](NC(=O)c4cc5cc(C(F)P(=O)(O)O)ccc5s4)C(=O)N32)C1 (stereo partly drawn) [Compound 205, ((2-(((3S,6S,9aS)-3-(3-(4-ethylpyridin-3-yl)azetidine-1-carbonyl)-5-oxooctahydro-1H-pyrrolo[1,2-a]azepin-6-yl)carbamoyl)benzo[b]thiophen-5-yl)fluoromethyl)phosphonic acid]
12 |  |  | < 0.1 µM | 3 to 30 µM | COc1ccncc1C1CN(C(=O)[C@@H]2CC[C@@H]3CCC[C@H](NC(=O)c4cc5cc(C(F)P(=O)(O)O)ccc5s4)C(=O)N32)C1 (stereo partly drawn) [Compound 206, (fluoro(2-(((3S,6S,9aS)-3-(3-(4-methoxypyridin-3-yl)azetidine-1-carbonyl)-5-oxooctahydro-1H-pyrrolo[1,2-a]azepin-6-yl)carbamoyl)benzo[b]thiophen-5-yl)methyl)phosphonic acid]
13 |  |  | < 0.1 µM | 3 to 30 µM | C[C@H]1C[C@H]2CC[C@@H](C(=O)N3CC(c4cnccc4F)C3)N2C(=O)[C@@H](NC(=O)c2cc3cc(C(F)P(=O)(O)O)ccc3s2)C1 (stereo partly drawn) [Compound 207, (fluoro(2-(((3S,6S,8R,9aR)-3-(3-(4-fluoropyridin-3-yl)azetidine-1-carbonyl)-8-methyl-5-oxooctahydro-1H-pyrrolo[1,2-a]azepin-6-yl)carbamoyl)benzo[b]thiophen-5-yl)methyl)phosphonic acid]
14 |  |  | < 0.1 µM | 0.3 to 3 µM | C[C@@H]1C[C@H]2CC[C@@H](C(=O)N3CC(c4cnccc4F)C3)N2C(=O)[C@@H](NC(=O)c2cc3cc(C(F)P(=O)(O)O)ccc3s2)C1 (stereo partly drawn) [Compound 209, (fluoro(2-(((3S,6S,8S,9aR)-3-(3-(4-fluoropyridin-3-yl)azetidine-1-carbonyl)-8-methyl-5-oxooctahydro-1H-pyrrolo[1,2-a]azepin-6-yl)carbamoyl)benzo[b]thiophen-5-yl)methyl)phosphonic acid]
15 |  |  | < 0.1 µM | 3 to 30 µM | CC[C@@H]1CC[C@H](NC(=O)c2cc3cc(C(F)P(=O)(O)O)ccc3s2)C(=O)N2[C@H](CC[C@H]2C(=O)N2CC(c3cnccc3OC)C2)C1 (stereo partly drawn) [Compound 210, ((2-(((3S,6S,9R,10aR)-9-ethyl-3-(3-(4-methoxypyridin-3-yl)azetidine-1-carbonyl)-5-oxodecahydropyrrolo[1,2-a]azocin-6-yl)carbamoyl)benzo[b]thiophen-5-yl)fluoromethyl)phosphonic acid]
16 |  |  | < 0.1 µM | 3 to 30 µM | COc1ccncc1C1CN(C(=O)[C@@H]2CC[C@@H]3C[C@H](C(C)C)CC[C@H](NC(=O)c4cc5cc(C(F)P(=O)(O)O)ccc5s4)C(=O)N32)C1 (stereo partly drawn) [Compound 211, (fluoro(2-(((3S,6S,9R,10aR)-9-isopropyl-3-(3-(4-methoxypyridin-3-yl)azetidine-1-carbonyl)-5-oxodecahydropyrrolo[1,2-a]azocin-6-yl)carbamoyl)benzo[b]thiophen-5-yl)methyl)phosphonic acid]
17 |  |  | 0.1 to 1 µM | 3 to 30 µM | Cc1ccncc1C1CN(C(=O)[C@@H]2CC[C@@H]3CCC[C@H](NC(=O)c4cc5cc(CP(=O)(O)O)ccc5s4)C(=O)N32)C1 [Compound 214, ((2-(((3S,6S,9aS)-3-(3-(4-methylpyridin-3-yl)azetidine-1-carbonyl)-5-oxooctahydro-1H-pyrrolo[1,2-a]azepin-6-yl)carbamoyl)benzo[b]thiophen-5-yl)methyl)phosphonic acid]
